“Also recorded” adds a separate entry of the source.
Columns and labels:
[1] = tested on: B16F10 cells (mouse melanoma model); assay: Mouse melanoma model: B16F10 cells subcutaneously in C57BL/6J female mice; format: in vivo; settings: FIG. 11, treatments administered for 7-9 days, 30 mg/kg per Table 2
Description: For in vivo studies, the drugs fosaprepitant dimeglumine salt (CAS No 265121-04-8, Selleck Chemicals), Cerenia® (Maropitant citrate injectable solution; Zoetis US), InVivoMAb Anti-mouse CTLA-4 (CD152) (BE0032, Bio cell), InVivoMAb Anti-mouse PD-1 (CD279) (BE0146, Bio cell) and Rat IgG2a k isotype (ref BE0089) were used.
B16F10 cells (1×10^6 per mouse) were subcutaneously injected into the right flank of C57BL/6J female mice (Charles River) with matrigel (Matrigel Membrane Matrix, Corning) at 50% v/v. Tumour growth was evaluated every 2/3 days. Animal vital parameters were monitored daily. When the tumours reached an average volume of 100-150 mm^3, mice were randomised into cohorts of 6 animals and treatments were administered for 7-9 days. Groups and regimens for each experiment are described in Table 2. Animals of the control group were dosed with equal volume of vehicle. Animals were euthanized according to institutional guidelines and tumour samples were excised. Tumours were snap-frozen in OCT medium (Sakura Tissue Tek) or fixed in PFA and embedded in paraffin. Several internal organs were also excised and fixed in PFA for future studies.

[2] = tested on: cell lines of Table 1 (3LL, 4T1, B16F10, CT26WT, PTEN, RT112, MCF7 cells); assay: MTT cell viability (cytotoxicity) assay in tumour cell lines, FIGS. 1-9; format: cell-based, mouse, rat and human; settings: cell viability after 24 hours or 48 hours
Experimental: 21 Cell lines of three different species (mouse, rat and human) were used in this study (Table 1). All of them were maintained in culture in their respective culture media (Gibco, Thermo Fisher Scientific) supplemented with 10% fetal bovine serum (FBS) (Gibco, Thermo Fisher Scientific), 2 mM L-Glutamine (Sigma-Aldrich, Merk), and Peni-Strep (50 U/ml and […]; Gibco, Thermo Fisher Scientific) in a humidified incubator at 37° C. and 5% CO2.
The cytotoxicity of the drugs in culture was evaluated using the 3-(4,5-Dimethyl-2-thiazolyl)-2,5-diphenyl-2H-tetrazolium bromide (MTT) reduction assay. The assay assesses cell viability through the indirect measurement of the activity of reductases that convert yellow soluble MTT into purple insoluble formazan salts. As MTT can only be reduced when these enzymes are active, the reaction is used as an indicator of the cell metabolic competence and, therefore, of viability.
A variable number of cells (depending on the cell line) were seeded in 96 multi-well plates and grown during 24 Hours Cell Viability. The following day the culture medium was aspirated and fresh culture medium with the drug dissolved was added to the wells. After 24 Hours Cell Viability or 48 Hours Cell Viability cell viability was measurement by adding 10 μl of a 5 mg/ml MTT solution (M5655; Sigma-Aldrich) and 100 μl of a Hcl 0.01M-SDS 10% solution 4 hours later. After 24 Hours Cell Viability, the absorbance was measured at 595 nm, using a multi-well plate reader (iMark, Bio-rad).

[3] = tested on: osteoclastic osteosarcoma clinical stage IV; assay: Compassionate use of aprepitant in a patient with osteosarcoma; format: in vivo, human
Experimental: On Dec. 9, 2022 the patient was approved for compassionate use of aprepitant at a dose of 4200 mg orally divided into 3 doses (the total daily dose being 4200 mg) along with ifosfamide and etoposide as a fourth line of treatment. Close clinical surveillance of the patient was initiated to monitor quality of life, functional status and manifestation of adverse reactions to treatment, as well as periodic serological surveillance and measurement of response to treatment by imaging studies using the RECIST 1.1 criteria.

[4] = tested on: a range of provoked cancers and tumours; settings: immunocompromised nude mice; 10-80 mg/kg per day, up to 28 days; cited from earlier work
[5] = tested on: osteosarcoma cell line, MG-63; settings: immunocompromised nude mice; injected weekly at 80 mg/kg; cited from earlier work
[6] = Feb. 6, 2023, aprepitant 4200 mg per day with ifosfamide and etoposide
[7] = PET/CT Jan. 9, 2023, aprepitant 4200 mg per day with ifosfamide and etoposide
[8] = aprepitant 4200 mg per day with ifosfamide and etoposide

With `COc1ccc(C(C)(C)C)cc1CN[C@H]1C2CCN(CC2)[C@H]1C(c1ccccc1)c1ccccc1` [Maropitant] the tumoral growth [1] was “reduces tumoral growth”.
With `C[C@@H](O[C@H]1OCCN(Cc2nc(=O)[nH][nH]2)[C@H]1c1ccc(F)cc1)c1cc(C(F)(F)F)cc(C(F)(F)F)c1` [aprepitant, 5-[[(2R, 3S)-2-[(1R)-1-[3,5-bis(trifluoromethyl)phenyl]ethoxy]-3-(4-fluorophenyl)-4-morpholinyl]methyl]-1,2-dihydro3H-1,2,4-triazol-3-one] the “anti-cancer effects in vitro (cell viability, MTT)” value (shortened to “anti-cancer effects in vitro”) [2] was “exhibited anti-cancer effects”, the left upper nodule [3, 6] was 21 mm and the “pulmonary nodule in left lower lobe” value [3, 6] was 16.5 mm. For the same molecule, the “pulmonary nodule in left lower nodule” value [3, 6] was 10 mm, the “size of bilateral pulmonary nodules and masses of right predominance” value [3, 6] was “slight increase in the size” and the “largest of two basal nodules, left lung” value [3, 7] was 20 mm. The “nodule in the left upper lower lobe” value [3, 7] was 16 mm, the “nodules in the posterior apical segment, left lung” value [3, 7] was 21 mm and the “diameter of solid nodule, right pleura, hilar in the middle lobe” value ([3]; PET/CT Jan. 9, 2023, aprepitant 4200 mg per day with ifosfamide and etoposide since Dec. 9, 2022) was 42 mm. For the same molecule, the “response according to RECIST 1.1 criteria, clinical and serological surveillance” value ([3]; aprepitant 4200 mg per day orally in 3 doses with ifosfamide and etoposide, from Dec. 9, 2022 to Feb. 15, 2023) was “stable disease-like response”, the Karnofsky [3, 8] was 70% and the “impact on the patient compared with the expected course of the disease” value [3, 8] was “positive impact”. For the same molecule, the “symptomatology by the Edmonton scale” value [3, 8] was “no increase in symptoms”, the ECOG functional status ([3]; aprepitant 4200 mg per day with ifosfamide and etoposide, since the start of follow-up) was 1 and the “EORTC QLQ-C30 overall score (quality of life)” value ([3]; aprepitant 4200 mg per day with ifosfamide and etoposide, since the start of therapy) was 50%. The tolerance ([3]; aprepitant 4200 mg per day with ifosfamide and etoposide, with supportive treatment) was “adequate tolerance” and the “effect on tumour size / growth” value [4] was “somewhat effective; also recorded: slows the growth of the tumours without any net reduction in the tumour sizes”.
In the case of `CNC[C@H](O)[C@@H](O)[C@H](O)[C@H](O)CO.CNC[C@H](O)[C@@H](O)[C@H](O)[C@H](O)CO.C[C@@H](O[C@H]1OCCN(Cc2nc(=O)n(P(=O)(O)O)[nH]2)[C@H]1c1ccc(F)cc1)c1cc(C(F)(F)F)cc(C(F)(F)F)c1` [fosaprepitant-dimeglumine, 1-Deoxy-1-(methylamino)-D-glucitol[3-[[(2R,3S)-2-[(1R)-1-[3,5-bis(trifluoromethyl)phenyl]ethoxy]-3-(4-fluorophenyl)-4-morpholinyl]methyl]-2,5-dihydro-5-oxo-1H-1,2,4 triazol-1-yl]phosphonate (2:1) (salt)], the tumoral growth [1] was “reduces tumoral growth”.
In the case of `C[C@@H](O[C@H]1OCCN(Cc2nc(O)n(P(=O)(O)O)n2)[C@H]1c1ccc(F)cc1)c1cc(C(F)(F)F)cc(C(F)(F)F)c1` [fosaprepitant], the “anti-cancer effects in vitro” value [2] is given as “exhibited anti-cancer effects” and the “therapeutic efficacy against MG-63 xenograft” value [5] is given as “some therapeutic efficacy”.
In the case of `Cc1ccccc1-c1cc(N2CCN(C)CC2)ncc1N(C)C(=O)C(C)(C)c1cc(C(F)(F)F)cc(C(F)(F)F)c1` [netupitant], the “anti-cancer effects in vitro” value [2] was “exhibited anti-cancer effects”.
